Results from publication PMC6491988, “Distinct Lipid Transfer Proteins display different IgE‐binding activities that are affected by fatty acid binding” (Allergy, 2018).

How the values were obtained:
rMal d 3 = molecular target: T1, rMal d 3 (Malus domestica, UniProt Q9M5X7); experiment: ANS displacement fluorescence; format: binding; details: 50 μmol/L ligand, protein:ligand 1:5
T1 construct: gene MALD3; recombinant, produced in Pichia pastoris, purified
T1 sequence (Q9M5X7 25-115): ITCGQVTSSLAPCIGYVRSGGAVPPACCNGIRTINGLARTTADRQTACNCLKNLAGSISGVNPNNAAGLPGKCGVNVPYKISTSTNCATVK

rCor a 8 = molecular target: T2, rCor a 8 (Corylus avellana, UniProt Q9ATH2); experiment: ANS displacement fluorescence; format: binding; details: 50 μmol/L ligand, protein:ligand 1:5
T2 construct: recombinant, produced in Pichia pastoris, purified
T2 sequence (Q9ATH2 24-115): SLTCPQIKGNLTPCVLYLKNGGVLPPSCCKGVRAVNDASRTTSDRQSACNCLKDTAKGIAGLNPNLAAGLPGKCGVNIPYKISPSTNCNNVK

Row | % reduction of ANS fluorescence at 50 μmol/L (rMal d 3) [%] | % reduction of ANS fluorescence at 50 μmol/L (rCor a 8) [%] | Structure (SMILES)
1 | 59 | 23 | CCCCCCCC/C=C\CCCCCCCC(=O)O [OLE, oleic acid]
2 | 17 |  | CCCCCCCCCCCCCCCCCC(=O)O [STE, stearic acid]
